The source of these data is patent US8232273B2, “Heterocyclic compounds and methods of use” (Genentech, Inc., priority 2008, dated 2012).

The structures appear in SMILES notation.

Chain of Bcl-xL (GST-Bcl-xL) (Q07817 whole entry, species assumed): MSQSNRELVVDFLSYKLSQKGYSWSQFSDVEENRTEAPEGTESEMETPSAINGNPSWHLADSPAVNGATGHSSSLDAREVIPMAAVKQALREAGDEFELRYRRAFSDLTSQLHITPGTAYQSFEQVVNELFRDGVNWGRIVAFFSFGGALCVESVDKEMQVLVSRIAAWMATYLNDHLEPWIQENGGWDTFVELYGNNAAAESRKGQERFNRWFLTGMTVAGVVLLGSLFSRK

The assay has as its target Bcl-xL (GST-Bcl-xL) (Homo sapiens, UniProt Q07817). Description: TR-FRET binding assay, competition with F-Bak for the Bcl-xL binding site. To be noted: values listed in the order of Table 1, read-out: TR-FRET assay results (Ki), Bcl-xL. As for the experimental part: The measurement of competition of compounds of the invention with F-Bak for a Bcl-2 family protein (Bcl-xL) binding site using a Time Resolved Fluorescence Resonance Energy Transfer (TR-FRET) binding assay:
Test compounds were serially diluted in DMSO starting at 50 μM (2× starting concentration; 10% DMSO) and 10 μt transferred into a 384-well plate.
The samples are then mixed on a shaker for 1 minute then incubated for an additional 2 hours at room temperature. For each assay plate, a probe/antibody and protein/antibody/probe mixture were included as a negative and a positive control, respectively. Fluorescence was measured on the Envision (Perkin Elmer) using a 340/35 nm excitation filter and 520/525 (F-Bak) and 495/510 nm (Tb-labeled anti-his antibody) emission filters. Dissociation constants (Ki) were determined using Wang's equation (see, Wang, Z. X. An exact mathematical expression for describing competitive binding of two different ligands to a protein molecule. FEBS Lett. 1995 360:111-114). The TR-FRET assay can be performed in the presence of varying concentrations of human serum (HS) or fetal bovine serum (FBS).
For orientation: TR-FRET usually uses a lanthanide donor and a delayed reading to cut background.
One may read the Ki as the dissociation constant of the complex between target and ligand, obtained from inhibition or displacement. In the case of `CC(=O)N1CCN(c2ccc(OCCCc3sc(N4CCc5cccc(C(=O)Nc6nc7ccccc7s6)c5C4)nc3C(=O)O)cc2)CC1` [Example 61, 5-{3-[4-(4-Acetyl-piperazin-1-yl)-phenoxy]-propyl}-2-[8-(benzothiazol-2-ylcarbamoyl)-3,4-dihydro-1H-isoquinolin-2-yl]-thiazole-4-carboxylic acid], the Ki was 0.3 nM.

For `O=C(Nc1nc2ccccc2s1)c1cccc2c1CN(c1nc(C(=O)O)c(CCCOc3ccc(-c4ncnc5c(Br)csc45)cc3)s1)CC2` [Example 65], the Ki turned out to be 0.07 nM. The value for `O=C(Nc1nc2ccccc2s1)c1cccc2c1CN(c1nc(C(=O)O)c(CCCOc3ccc(-n4ccnc4)cc3)s1)CC2` [Example 66, 5-(3-(4-(1H-imidazol-1-yl)phenoxy)propyl)-2-(8-(benzo[d]thiazol-2-ylcarbamoyl)-3,4-dihydroisoquinolin-2(1H)-yl)thiazole-4-carboxylic acid] was 0.1 nM; that for `O=C(Nc1nc2ccccc2s1)c1cccc2c1CN(c1nc(C(=O)O)c(CCCOc3ccc(-n4cncn4)cc3)s1)CC2` [Example 67, 5-(3-(4-(1H-1,2,4-triazol-1-yl)phenoxy)propyl)-2-(8-(benzo[d]thiazol-2-ylcarbamoyl)-3,4-dihydroisoquinolin-2(1H)-yl)thiazole-4-carboxylic acid] was 0.05 nM; that for `Cn1cnnc1-c1ccc(OCCCc2sc(N3CCc4cccc(C(=O)Nc5nc6ccccc6s5)c4C3)nc2C(=O)O)cc1` [Example 68, 2-(8-(benzo[d]thiazol-2-ylcarbamoyl)-3,4-dihydroisoquinolin-2(1H)-yl)-5-(3-(4-(4-methyl-4H-1,2,4-triazol-3-yl)phenoxy)propyl)thiazole-4-carboxylic acid] was 0.2 nM. For `CC(C)Nc1ncnc2c(-c3ccc(OCCCc4sc(N5CCc6cccc(C(=O)Nc7nc8ccccc8s7)c6C5)nc4C(=O)O)cc3)csc12` [Example 69, 2-[8-(Benzothiazol-2-ylcarbamoyl)-3,4-dihydro-1H-isoquinolin-2-yl]-5-{3-[4-(4-isopropylamino-thieno[3,2-d]pyrimidin-7-yl)-phenoxy]-propyl}-thiazole-4-carboxylic acid] the value was 0.5 nM; for `O=C(Nc1nc2ccccc2s1)c1cccc2c1CN(c1nc(C(=O)O)c(CCCCn3ccnc3)s1)CC2` [Example 72, 5-(4-(1H-imidazol-1-yl)butyl)-2-(8-(benzo[d]thiazol-2-ylcarbamoyl)-3,4-dihydroisoquinolin-2(1H)-yl)thiazole-4-carboxylic acid], 3 nM; for `O=C(Nc1nc2ccccc2s1)c1cccc2c1CN(c1nc(C(=O)O)c(CCCOc3ccc(-c4cn[nH]c4)cc3)s1)CC2` [Example 73, 5-(3-(4-(1H-pyrazol-4-yl)phenoxy)propyl)-2-(8-(benzo[d]thiazol-2-ylcarbamoyl)-3,4-dihydroisoquinolin-2(1H)-yl)thiazole-4-carboxylic acid], 0.08 nM. The value for `N[C@H]1[C@@H]2CCC[C@H]1[C@@H](c1ccc(OCCCc3sc(N4CCc5cccc(C(=O)Nc6nc7ccccc7s6)c5C4)nc3C(=O)O)cc1)CC2` [Example 80, 5-(3-(4-((1S,2S,5R,9S)-9-aminobicyclo[3.3.1]nonan-2-yl)phenoxy)propyl)-2-(8-(benzo[d]thiazol-2-ylcarbamoyl)-3,4-dihydroisoquinolin-2(1H)-yl)thiazole-4-carboxylic acid] was 0.5 nM; that for `O=C(Nc1nc2ccccc2s1)c1cccc2c1CN(c1nc(C(=O)O)c(CCCOc3ccc(-c4cnn(CCN5CCOCC5)c4)cc3)s1)CC2` [Example 83, 2-(8-(benzo[d]thiazol-2-ylcarbamoyl)-3,4-dihydroisoquinolin-2(1H)-yl)-5-(3-(4-(1-(2-morpholinoethyl)-1H-pyrazol-4-yl)phenoxy)propyl)thiazole-4-carboxylic acid] was 0.05 nM. With `Cc1c(CN2CCN(C)CC2)cnn1-c1ccc(OCCCc2sc(N3CCc4cccc(C(=O)Nc5nc6ccccc6s5)c4C3)nc2C(=O)O)cc1` [Example 85, 2-(8-(benzo[d]thiazol-2-ylcarbamoyl)-3,4-dihydroisoquinolin-2(1H)-yl)-5-(3-(4-(5-methyl-4-((4-methylpiperazin-1-yl)methyl)-1H-pyrazol-1-yl)phenoxy)propyl)thiazole-4-carboxylic acid], the Ki came to 0.05 nM.

As to `CN1CCN(Cc2ccc(OCCCc3sc(N4CCc5cccc(C(=O)Nc6nc7ccccc7s6)c5C4)nc3C(=O)O)cc2)CC1` [Example 89, 2-[8-(Benzothiazol-2-ylcarbamoyl)-3,4-dihydro-1H-isoquinolin-2-yl]-5-{3-[4-(4-methyl-piperazin-1-ylmethyl)-phenoxy]-propyl}-thiazole-4-carboxylic acid], the Ki was found to be 0.1 nM.

With `CN1CCN(CCCN(CCCc2sc(N3CCc4cccc(C(=O)Nc5nc6ccccc6s5)c4C3)nc2C(=O)O)c2ncnc3c2cnn3-c2ccc(O)cc2)CC1` [Example 91, 2-(8-(benzo[d]thiazol-2-ylcarbamoyl)-3,4-dihydroisoquinolin-2(1H)-yl)-5-(3-((1-(4-hydroxyphenyl)-1H-pyrazolo[3,4-d]pyrimidin-4-yl)(3-(4-methylpiperazin-1-yl)propyl)amino)propyl)thiazole-4-carboxylic acid], the Ki turned out to be 0.7 nM. The value for `CN(C)CCCNc1ncnc2c1cnn2-c1ccc(OCCCc2ccc(N3CCc4cccc(C(=O)Nc5nc6ccccc6s5)c4C3)nc2C(=O)O)cc1` [Example 92, 6-(8-(benzo[d]thiazol-2-ylcarbamoyl)-3,4-dihydroisoquinolin-2(1H)-yl)-3-(3-(4-(4-(3-(dimethylamino)propylamino)-1H-pyrazolo[3,4-d]pyrimidin-1-yl)phenoxy)propyl)picolinic acid] was 0.05 nM; that for `O=C(Nc1nc2ccccc2s1)c1cccc2c1CN(c1ccc(CCCO)c(C(=O)O)n1)CC2` [Example 99, 6-[8-(Benzothiazol-2-ylcarbamoyl)-3,4-dihydro-1H-isoquinolin-2-yl]-3-(3-hydroxy-propyl)-pyridine-2-carboxylic acid] was 125 nM; that for `CN1CCN(c2ccc(OCCCc3ccc(N4CCc5cccc(C(=O)Nc6nc7ccccc7s6)c5C4)nc3C(=O)O)c(F)c2)CC1` [Example 101, 6-(8-(benzo[d]thiazol-2-ylcarbamoyl)-3,4-dihydroisoquinolin-2(1H)-yl)-3-(3-(2-fluoro-4-(4-methylpiperazin-1-yl)phenoxy)propyl)picolinic acid] was 0.7 nM. For `CN(C)CCCc1ccc(OCCCc2sc(N3CCc4cccc(C(=O)Nc5nc6ccccc6s5)c4C3)nc2C(=O)O)cc1` [Example 107, 2-(8-(benzo[d]thiazol-2-ylcarbamoyl)-3,4-dihydroisoquinolin-2(1H)-yl)-5-(3-(4-(3-(dimethylamino)propyl)phenoxy)propyl)thiazole-4-carboxylic acid] the value was 0.15 nM. For `O=C(Nc1nc2ccccc2s1)c1cccc2c1CN(c1nc(C(=O)O)c(C#Cc3ccc4cc(OCCCN5CCOCC5)ccc4c3)s1)CC2` [Example 110, 2-(8-(benzo[d]thiazol-2-ylcarbamoyl)-3,4-dihydroisoquinolin-2(1H)-yl)-5-((6-(3-morpholinopropoxy)naphthalen-2-yl)ethynyl)thiazole-4-carboxylic acid] the value was 0.07 nM.
